# Results taken from ChEMBL document CHEMBL1667722, “Radical scavenging and antioxidant activities of isocoumarins and a phthalide from the endophytic fungus Colletotrichum sp” (J Nat Prod, 2011).
# Columns and labels:
# [1] = tested on: MOLT-3; test: Cytotoxicity against human MOLT3 cells by XTT assay; type: functional, cell-based
# [2] = target: Xanthine dehydrogenase/oxidase (Homo sapiens, UniProt P47989); test: Inhibition of Xanthine oxidase
# [3] = Cytotoxicity against human HuCCA1 cells by MTT assay; type: functional, cell-based; conditions: HuCC-A1
# [4] = tested on: HepG2; test: Cytotoxicity against human HepG2 cells by MTT assay; type: functional, cell-based
# [5] = Antioxidant activity assessed as inhibition of xanthine-xanthine oxidase generated superoxide anion radical production; type: functional
# [6] = tested on: A549; test: Cytotoxicity against human A549 cells by MTT assay; type: functional, cell-based
# [7] = target: T1, Aromatase (Homo sapiens, UniProt P11511); test: Inhibition of CYP19
# T1 sequence (P11511 whole entry): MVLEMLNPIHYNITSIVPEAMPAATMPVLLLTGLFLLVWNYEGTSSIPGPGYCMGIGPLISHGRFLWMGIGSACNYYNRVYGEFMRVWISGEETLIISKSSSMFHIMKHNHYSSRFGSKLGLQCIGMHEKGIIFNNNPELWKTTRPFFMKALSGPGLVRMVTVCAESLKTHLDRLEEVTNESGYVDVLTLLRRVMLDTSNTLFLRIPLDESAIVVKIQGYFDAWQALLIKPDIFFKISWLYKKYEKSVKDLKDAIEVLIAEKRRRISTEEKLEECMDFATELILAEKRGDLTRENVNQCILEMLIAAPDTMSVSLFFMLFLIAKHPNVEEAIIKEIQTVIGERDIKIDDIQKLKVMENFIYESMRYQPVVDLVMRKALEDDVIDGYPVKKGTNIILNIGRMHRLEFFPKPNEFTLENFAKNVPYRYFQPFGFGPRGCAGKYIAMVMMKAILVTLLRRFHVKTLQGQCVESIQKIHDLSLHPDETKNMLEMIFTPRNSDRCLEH
# [8] = tested on: Radical scavenging activity; test: Antioxidant activity assessed as DPPH radical scavenging activity; type: functional
# [9] = tested on: HL-60; test: Antioxidant activity in human HL60 cells assessed as inhibition of TPA-induced superoxide anion radical production; type: functional, cell-based
# Sequence of Xanthine dehydrogenase/oxidase (P47989 whole entry): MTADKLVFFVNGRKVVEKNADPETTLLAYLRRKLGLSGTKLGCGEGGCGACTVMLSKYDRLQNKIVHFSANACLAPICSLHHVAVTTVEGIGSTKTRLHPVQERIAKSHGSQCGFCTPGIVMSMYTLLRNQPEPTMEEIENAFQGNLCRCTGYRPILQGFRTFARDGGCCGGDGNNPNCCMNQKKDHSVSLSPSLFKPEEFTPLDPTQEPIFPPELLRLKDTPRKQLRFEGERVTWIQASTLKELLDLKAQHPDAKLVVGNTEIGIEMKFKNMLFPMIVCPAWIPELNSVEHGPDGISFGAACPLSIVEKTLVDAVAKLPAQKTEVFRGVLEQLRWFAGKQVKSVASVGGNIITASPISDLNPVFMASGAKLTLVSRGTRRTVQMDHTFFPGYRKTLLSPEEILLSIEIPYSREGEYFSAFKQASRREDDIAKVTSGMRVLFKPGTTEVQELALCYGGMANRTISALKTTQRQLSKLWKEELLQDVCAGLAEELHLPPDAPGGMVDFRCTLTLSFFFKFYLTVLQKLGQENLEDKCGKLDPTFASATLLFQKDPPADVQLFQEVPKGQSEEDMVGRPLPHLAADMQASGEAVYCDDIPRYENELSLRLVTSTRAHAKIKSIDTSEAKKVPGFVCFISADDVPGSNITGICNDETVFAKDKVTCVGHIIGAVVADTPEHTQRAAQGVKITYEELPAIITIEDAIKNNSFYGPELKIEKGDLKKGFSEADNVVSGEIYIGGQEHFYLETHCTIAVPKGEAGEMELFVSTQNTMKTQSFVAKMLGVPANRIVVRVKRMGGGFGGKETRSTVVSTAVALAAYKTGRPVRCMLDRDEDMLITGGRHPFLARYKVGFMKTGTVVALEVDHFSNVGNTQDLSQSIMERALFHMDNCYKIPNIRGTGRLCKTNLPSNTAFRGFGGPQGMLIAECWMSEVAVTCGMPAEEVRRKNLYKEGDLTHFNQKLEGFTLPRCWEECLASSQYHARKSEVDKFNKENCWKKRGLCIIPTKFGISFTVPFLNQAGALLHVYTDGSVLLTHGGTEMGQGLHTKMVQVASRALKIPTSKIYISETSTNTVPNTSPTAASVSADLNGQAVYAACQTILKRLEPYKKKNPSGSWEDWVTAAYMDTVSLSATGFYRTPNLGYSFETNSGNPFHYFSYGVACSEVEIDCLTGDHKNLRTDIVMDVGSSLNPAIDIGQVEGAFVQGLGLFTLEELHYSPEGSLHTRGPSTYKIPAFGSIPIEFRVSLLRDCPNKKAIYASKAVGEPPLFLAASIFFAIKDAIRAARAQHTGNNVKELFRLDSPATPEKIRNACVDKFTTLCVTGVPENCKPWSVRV
Structure (SMILES),IC50 [2] [µM],IC50 [5] [µM],IC50 [7] [µM],IC50 [8] [µM],IC50 [9] [µM],IC50 [1] [µM],IC50 [3] [µM],IC50 [4] [µM],IC50 [6] [µM]
CCC[C@H]1C[C@H]2OC(=O)c3c(cc(OC)c(O)c3O)[C@H]2O1,> 679,52.6,> 16.9,23.4,> 136,124,> 170,23.7,> 170
CCC[C@@H](O)C[C@H]1OC(=O)c2c(cc(OC)c(OC)c2O)[C@H]1O,> 612,352,> 15.3,> 306,> 122,> 153,–,–,–
Oc1ncnc2[nH]ncc12 [ALLOPURINOL],–,3,–,–,–,–,–,–,–
COc1cccc2c1C(=O)c1c(O)c3c(c(O)c1C2=O)C[C@@](O)(C(=O)CO)C[C@@H]3O[C@H]1C[C@H](N)[C@H](O)[C@H](C)O1 [DOXORUBICIN],–,–,–,–,–,–,0.67,0.29,0.34
COc1cc([C@@H]2c3cc4c(cc3[C@@H](O[C@@H]3O[C@@H]5CO[C@@H](C)O[C@H]5[C@H](O)[C@H]3O)[C@H]3COC(=O)[C@H]23)OCO4)cc(OC)c1O [ETOPOSIDE],–,–,–,–,–,0.03,–,15.8,–
CCC[C@H]1C[C@H]2OC(=O)c3c(cc(OC)c(OC)c3O)[C@H]2O1 [MONOCERIN],> 648,> 648,> 16.2,> 324,> 130,153,> 162,> 162,> 162

# More lines, main results first:
IC50 [2] [µM],IC50 [5] [µM],IC50 [7] [µM],IC50 [8] [µM],IC50 [9] [µM],Structure (SMILES),IC50 [1] [µM],IC50 [3] [µM],IC50 [4] [µM],IC50 [6] [µM]
–,–,–,21.2,–,O=C1O[C@H]([C@@H](O)CO)C(O)=C1O [ASCORBIC ACID],–,–,–,–
> 648,–,> 16.2,> 324,> 130,CCCC(=O)CC[C@H]1OC(=O)c2c1cc(OC)c(OC)c2O [COLLETOTRIALIDE],148,> 162,> 162,> 162
> 644,–,> 16.1,> 322,> 128,"CCC[C@H](O)C[C@@H]1Cc2cc(OC)c(OC)c(O)c2C(=O)O1 [FUSARENTIN 6,7-DIMETHYLETHER]",115,> 161,121,> 161
> 675,4.3,> 16.8,16.4,> 135,CCC[C@H](O)C[C@@H]1Cc2cc(OC)c(O)c(O)c2C(=O)O1 [FUSARENTIN 6-METHYL ETHER],> 169,–,–,–
